Like-named read-outs stand apart in the source and are kept apart here.
Assays:
[1] = molecular target: T1, human tenascin-C (Homo sapiens, UniProt P24821); assay: Competition filter binding assay against 99mTc-TTA1-MAG2; settings: 2 nM human TN-C, 1 nM 99mTc-TTA1-MAG2, competed with unlabeled aptamer, 37° C., 15 min
Experimental: A competition filter binding assay was carried out in order to determine binding constants (EC50). Samples of 2 nM human TN-C were incubated with 1 nM ^99mTc-TTA1-MAG2 in TBSMC buffer (20 mM Tris, pH 7.4; 137 mM NaCl; 1 mM CaCl2; 1 mM MgCl2) and the binding competed with varying concentrations of unlabeled aptamer (see pipetting scheme in FIG. 9.1). Incubation was carried out at 37° C. for 15 min. Subsequently, the solutions were pipetted on a Minifold Device equipped with a supported nitrocellulose membrane and Whatman filter paper and were washed with buffer using vacuum. Residual radioactivity on the filter due to tenascin-C bound labeled aptamer was quantified using a Phosphorimager. EC50 values were calculated using GraphPadPrism 3.02 (San Diego, Calif., USA) plotting one-side competition non-linear regression curves.

[2] = molecular target: T1, human tenascin-C; settings: cited from earlier work

T1 sequence (P24821 23-2201): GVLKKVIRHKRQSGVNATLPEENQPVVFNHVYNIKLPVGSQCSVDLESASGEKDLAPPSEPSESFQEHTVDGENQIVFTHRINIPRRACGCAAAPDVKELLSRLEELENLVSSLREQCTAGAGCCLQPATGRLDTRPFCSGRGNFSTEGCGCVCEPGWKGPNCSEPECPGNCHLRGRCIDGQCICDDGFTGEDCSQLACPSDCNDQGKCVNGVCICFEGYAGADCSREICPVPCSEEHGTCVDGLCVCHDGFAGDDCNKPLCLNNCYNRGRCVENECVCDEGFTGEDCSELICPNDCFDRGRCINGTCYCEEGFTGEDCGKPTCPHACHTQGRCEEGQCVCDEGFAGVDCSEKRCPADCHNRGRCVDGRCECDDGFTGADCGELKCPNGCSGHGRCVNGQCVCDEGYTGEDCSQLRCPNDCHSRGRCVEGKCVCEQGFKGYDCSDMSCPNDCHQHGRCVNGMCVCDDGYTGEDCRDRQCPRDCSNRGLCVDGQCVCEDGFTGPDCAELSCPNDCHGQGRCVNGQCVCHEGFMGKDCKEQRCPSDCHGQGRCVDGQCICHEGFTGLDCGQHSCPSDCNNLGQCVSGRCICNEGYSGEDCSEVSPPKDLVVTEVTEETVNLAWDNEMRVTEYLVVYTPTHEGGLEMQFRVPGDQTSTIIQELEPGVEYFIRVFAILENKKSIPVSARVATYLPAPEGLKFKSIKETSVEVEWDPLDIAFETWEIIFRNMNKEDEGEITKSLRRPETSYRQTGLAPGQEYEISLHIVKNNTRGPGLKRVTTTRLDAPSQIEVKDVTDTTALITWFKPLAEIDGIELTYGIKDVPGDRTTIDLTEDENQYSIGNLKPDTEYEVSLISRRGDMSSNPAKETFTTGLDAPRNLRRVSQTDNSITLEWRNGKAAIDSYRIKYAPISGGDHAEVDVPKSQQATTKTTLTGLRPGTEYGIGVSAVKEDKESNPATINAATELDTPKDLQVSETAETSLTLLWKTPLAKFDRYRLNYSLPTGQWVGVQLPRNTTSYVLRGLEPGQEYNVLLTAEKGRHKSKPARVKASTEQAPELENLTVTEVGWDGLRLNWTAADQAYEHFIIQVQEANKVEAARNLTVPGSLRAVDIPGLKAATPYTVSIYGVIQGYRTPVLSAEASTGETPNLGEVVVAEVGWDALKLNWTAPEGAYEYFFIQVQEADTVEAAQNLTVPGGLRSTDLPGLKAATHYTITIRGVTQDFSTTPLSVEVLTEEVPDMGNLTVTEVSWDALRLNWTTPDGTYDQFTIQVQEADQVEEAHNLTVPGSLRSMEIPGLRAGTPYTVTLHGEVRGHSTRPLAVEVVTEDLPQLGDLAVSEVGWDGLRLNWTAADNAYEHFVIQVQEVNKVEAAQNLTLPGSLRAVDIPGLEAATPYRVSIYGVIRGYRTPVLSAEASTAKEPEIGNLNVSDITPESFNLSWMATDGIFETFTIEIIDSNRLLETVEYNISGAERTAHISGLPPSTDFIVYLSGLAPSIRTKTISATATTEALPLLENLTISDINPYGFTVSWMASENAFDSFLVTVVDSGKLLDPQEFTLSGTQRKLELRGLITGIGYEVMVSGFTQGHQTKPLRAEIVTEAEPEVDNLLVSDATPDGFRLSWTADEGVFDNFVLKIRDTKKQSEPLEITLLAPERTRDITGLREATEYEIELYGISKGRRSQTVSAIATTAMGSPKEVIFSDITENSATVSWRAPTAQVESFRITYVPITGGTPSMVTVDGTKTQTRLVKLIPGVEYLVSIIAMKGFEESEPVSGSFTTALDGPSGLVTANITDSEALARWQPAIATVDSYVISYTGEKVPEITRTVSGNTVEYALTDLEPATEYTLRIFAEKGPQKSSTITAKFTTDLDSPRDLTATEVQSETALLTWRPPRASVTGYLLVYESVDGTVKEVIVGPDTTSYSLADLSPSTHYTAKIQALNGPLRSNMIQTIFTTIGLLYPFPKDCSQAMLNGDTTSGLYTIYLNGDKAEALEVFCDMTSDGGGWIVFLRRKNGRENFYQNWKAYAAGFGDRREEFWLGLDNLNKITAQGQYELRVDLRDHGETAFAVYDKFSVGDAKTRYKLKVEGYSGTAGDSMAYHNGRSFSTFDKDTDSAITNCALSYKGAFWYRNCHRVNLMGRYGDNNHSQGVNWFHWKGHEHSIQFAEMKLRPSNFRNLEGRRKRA

| Substance | EC50 [1] | Kd ([2]; final synthetic oligonucleotide, Hicke et al., read-out: KD) | Kd ([2]; human tenascin-C, read-out: binding affinity KD) |
| --- | --- | --- | --- |
| 5′-(aminomodifier C2 dT)-mA mGmGmG mAmGG mAfCmG-(CH2CH2O)6-fCGfU fCGfC fCGfU mAmAfU mGmGmA fUmGfU fUfUfU mGfCfU fCfCfC fUmG-3′-3′-T (chain 1 AGGGAGGACG; chain 2 CGUCGCCGUAAUGGAUGUUUUGCUCCCUG; 2'-OMe and 2'-F mix, some positions unassigned, 5' amino-C2 dT, hexaethylene glycol spacer, 3'-3' dT, further chemistry not given here) [TTA5] | 39 nM | – | – |
| 5′-LGLGLG LALGmG mAfCrG-(CH2OCH2)6-fCGfU fCGfC fCGfU mAmAfU mGmGmA fUmGfU fUfUfU mGLCLU LCLCLC-(CH2)6NH2-3′ (CGUCGCCGUAAUGGAUGUUUUG; LNA/2'-OMe/2'-F, PEG spacer, 3' aminohexyl, chemistry not fully specified) [TTA7] | 2 nM | – | – |
| 5′-NH2-C6-O-PO2-O-GGG AGG ACG-(CH2CH2O)6-CGUCGCCGUAAUGGAUGUUUUGCUCCCUG-3′-3′-T (CGUCGCCGUAAUGGAUGUUUUGCUCCCUG; 5' aminohexyl, hexaethylene glycol spacer, 3'-3' inverted dT, chemistry not fully specified) [TTA1] | 6 nM | 5 nM | 5 nM |
| 5′-NH2-C6-O-PO2-O-mGmGmG mAmGG mAfCmG-(CH2CH2O)6-fCGfU fCGfC fCGfU mAmAfU mGmGmA fUmGfU fUfUfU mGfCfU fCfCfC UG-3′-3′-T (CGUCGCCGUAAUGGAUGUUUUGCUCCCUG; 2'-OMe/2'-F, 5' aminohexyl, PEG spacer, 3' inverted dT, chemistry not fully specified) [TTA3] | 19 nM | – | – |
| 5′-NH2-C6-O-PO2-O-mGmGmG mAmGG mAfCmG-(CH2CH2O)6-fCGfU fCGfC fCGfU mAmAfU mGmGmA fUmGfU fUfUfU mGfCfU fCfCfC UmG-3′-3′-T (CGUCGCCGUAAUGGAUGUUUUGCUCCCUG; 2'-OMe/2'-F, 5' aminohexyl, PEG spacer, 3' inverted dT, chemistry not fully specified) [TTA2] | 31 nM | – | – |
| 5′-NH2-C6-O-SPO-O-mGmGmG mAmGG mAfCmG-(CH2CH2O)6-fCGfU fCGfC fCGfU mAmAfU mGmGmA fUmGfU fUfUfU mGfCfU fCfCfC fUmG-3′-3′-T (CGUCGCCGUAAUGGAUGUUUUGCUCCCUG; 5' aminohexyl phosphorothioate, 2'-OMe/2'-F, PEG spacer, inverted dT, chemistry not fully specified) [TTA6] | 14 nM | – | – |
| 5′-mGmGmG mAmGG mAfCmG-(CH2CH2O)6-fCGfU fCGfC fCGfU mAmAfU mGmGmA fUmGfU fUfUfU mGfCfU fC(C6-NH2)CfC-3′-3′-T (CGUCGCCGUAAUGGAUGUUUUGCUC; 2'-OMe/2'-F, internal C6-amine, PEG spacer, 3' inverted dT, chemistry not fully specified) [TTA4] | 20 nM | – | – |
| 5′-mGmGmG mAmGmG mAfCrG-(CH2OCH2)6-fCGfU fCGfC fCGfU mAmAfU mGmGmA fUmGfU fUfUfU mGmCmU mCmCmC-(CH2)6NH2-3′ (CGUCGCCGUAAUGGAUGUUUUGCUCCC; 2'-OMe/2'-F, PEG spacer, 3' aminohexyl, chemistry not fully specified) [TTA8] | 14 nM | – | – |
